Experiment in all cases: DTP human tumour cell line panel, 48 h
For test [1], the system named is K-562 leukemia.
The test system of test [2] is CCRF-CEM leukemia.
Test [3] deals with IGROV1 ovarian.
The test system of test [4] is COLO 205 colon.
Test [5] relates to SNB-19 CNS.
The test system of test [6] is UO-31 renal.
Test [7] has as its system 786-0 renal.
Test [8] concerns HCT-116 colon.
The test system of test [9] is ACHN renal.
Test [10] concerns HL-60(TB) leukemia.

SMILES strings stand for the structures. Values joined by “and” are separate entries in the source; they are usually repeats but may differ in a detail not shown here. Equal values may be shown once.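 Five compound concentrations were applied to cells in 96-well plates for 48 hours; endpoints were derived by simple linear interpolation of the resulting dose-response curve. At the GI50, growth is halved. Definition used: TGI = concentration required for complete inhibition of growth.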 Where only a bound is given, the exact number is not on record here.

On to `O=[N+]([O-])C1(CO)COC2(OC1)c1ccccc1-c1ccccc12`, for which the TGI in test [1] is more than 87 µM; in test [2] it was 71 µM; in [3], more than 100 µM; in test [4], more than 82.4 µM; in test [5] it was more than 100 µM; in [6] it was more than 100 µM. For the same molecule, the TGI was more than 74.8 µM in test [7], 88.7 µM in [8], more than 100 µM in test [9] and 58.5 µM in test [10].
`COc1ccc2nc(NC(=O)C(=O)C(C#N)c3ccc(CC#N)cc3)sc2c1` (stereo not drawn): the TGI in test [1], in test [2], in test [3], in [4], in test [5] and in test [6] was more than 100 µM in each case. Further, the TGI in test [7], in [8], in test [9] and in test [10] was more than 100 µM in each case.
Consider `Nc1cc2ccncc2c2ccccc12`, for which the GI50 in test [1] is 13.5 µM; in test [2], 12.6 µM; in test [3], 11.9 µM; in [4] it was 6.89 µM; in test [5] it was 19.5 µM; in test [6], 4.1 µM. Also, the GI50 is 23.3 µM in test [7], 4.85 µM in test [8], 4.44 µM in [9] and 20 µM in [10]. Moreover, the TGI in [1] is 73 µM; in test [2], 99.1 µM; in test [3], more than 100 µM; in test [4], 20.8 µM; in test [5] it was more than 100 µM; in test [6], 45.6 µM. Also, the TGI is more than 100 µM in test [7], more than 100 µM in test [8], 58.5 µM in test [9] and 61.9 µM in test [10].
In the case of `CC(C(=O)C(C)O[Si](c1ccccc1)(c1ccccc1)C(C)(C)C)=P(c1ccccc1)(c1ccccc1)c1ccccc1` (stereo not drawn), the TGI is 12.3 µM in [1]; 15.8 µM in test [2]; 13.9 µM in test [3]; 3.45 µM in test [4]; 14.5 µM in test [5]; 17.2 µM in test [6]. In addition, the TGI was found to be 15.4 µM in [7], 10.6 µM in [8], 14.6 µM in test [9] and 4.24 µM in test [10].
As for `O=C1CCC(=O)C(C(=O)CCC(=O)Nc2ccc(Cl)cc2)C1` (stereo not drawn), the TGI in test [1], in test [2], in [3], in test [4], in [5] and in [6] was more than 100 µM throughout. Also, the TGI in test [7], in [8], in test [9] and in test [10] was more than 100 µM each time.
As to `COc1ccc(C2C3=C(COC3=O)N(CCO)c3cc4c(cc32)CCC4)cc1OC` (stereo not drawn), the GI50 was 0.47 µM in test [1]; 1.73 µM in test [2]; 0.274 µM in test [3]; 0.533 µM in [4]; 2.16 µM in test [5]; 1.13 µM in [6]. The GI50 was 5.56 µM in test [7], 0.524 µM in test [8], 4.32 µM in test [9] and 0.328 µM in test [10]. Also, the TGI in test [1] is more than 50 µM; in test [2], more than 50 µM; in test [3] it was more than 42.7 µM; in test [4], 7.71 µM; in test [5], more than 50 µM; in test [6], more than 50 µM. Moreover, the TGI in test [7] was more than 50 µM; in test [8] it was more than 50 µM; in [9], more than 50 µM; in test [10], more than 10.5 µM.
In the case of `COc1ccc(CN[C@H]2CCc3cc(OC)c(OC)c(OC)c3-c3ccc(SC)c(=O)cc32)c(OC)c1OC`, the GI50 was less than 0.01 µM in test [1]; 0.0107 µM in [2]; 0.0395 µM in test [3]; less than 0.01 µM in test [4]; 0.0898 µM in [6]; 0.0285 µM in [7]. Further, the figures for the GI50 in test [8], in [9] and in test [10] were less than 0.01 µM, 0.0428 µM and less than 0.01 µM, respectively. The TGI in [1] was 1.35 µM; in [2] it was 5.46 µM; in [3] it was more than 100 µM; in test [4] it was 0.0645 µM and 0.0155 µM; in [5], more than 100 µM; in [6], 98.9 µM. Moreover, the concentration for total growth inhibition (TGI) in [7] was more than 100 µM; in test [8], 0.0597 µM and 0.133 µM; in [9], more than 100 µM.
Regarding `CO[C@H]1/C=C/C=C/C=C/C[C@H](OC(=O)[C@@H](C)NC(=O)C2CCCCC2)[C@H](C)[C@@H](O)/C(C)=C\CCC2=CC(=O)C=C(NC(=O)C1)C2=O`, the GI50 in test [1] is 0.177 µM; in test [2], 0.114 µM; in [3], 0.0941 µM; in test [4], 0.116 µM; in [5], 0.106 µM; in test [6], 0.352 µM. The GI50 in [7] is 0.177 µM; in test [8] it was 0.0472 µM; in [9], 0.223 µM; in test [10], 0.167 µM. Also, the TGI is more than 50 µM in [1]; more than 50 µM in test [2]; 1.28 µM in test [3]; 0.736 µM in [4]; 0.563 µM in test [5]; 2.79 µM in test [6]. Moreover, the TGI in test [7] came out at 1.32 µM; in test [8], 0.738 µM; in [9] it was 1.31 µM; in test [10], 0.839 µM.
